What follows are compounds tested against T1, human Edg-1 receptor (Homo sapiens, UniProt P21453) (assay: GTP-γ-S assay using human Edg-1 receptors (scintillation proximity assay, CHO Flp-In membrane preparation)). Conditions: test compound at 10 μM; high control 10 μM S1P = 100% activation; membranes of CHO Flp-In cells overexpressing human Edg-1; read-out: % activation (Edg-1 receptor activation in percent of the activation by 10 μM S1P).
T1 construct: FLAG (N); expressed in transfected cells; membrane preparation
T1 sequence (P21453 whole entry): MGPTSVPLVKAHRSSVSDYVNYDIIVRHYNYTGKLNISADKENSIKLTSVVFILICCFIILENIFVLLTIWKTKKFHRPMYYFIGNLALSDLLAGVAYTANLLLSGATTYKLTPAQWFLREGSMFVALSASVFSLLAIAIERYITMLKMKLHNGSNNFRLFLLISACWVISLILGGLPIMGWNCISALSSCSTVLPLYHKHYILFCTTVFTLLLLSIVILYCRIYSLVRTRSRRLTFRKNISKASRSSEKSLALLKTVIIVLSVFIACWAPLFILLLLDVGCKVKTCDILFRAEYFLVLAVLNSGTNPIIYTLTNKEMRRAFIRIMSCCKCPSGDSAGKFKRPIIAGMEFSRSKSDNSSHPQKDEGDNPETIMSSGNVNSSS
Format: biochemical
Description: A) GTP-γ-S Assay Using Human Edg-1 Receptors
In order to determine the Edg-1 receptor activation by the compounds of the invention, a GTP-γ-S (GTP-γ-S=guanosine 5′-[thio]triphosphate) assay for G-protein coupled receptor binding based on the scintillation proximity assay principle was used, employing a cell membrane preparation from a CHO Flp-In cell line which constitutively overexpresses the human Edg-1 receptor.
A membrane preparation was obtained by standard methods from the aforedescribed CHO Flp-In cell line constitutively overexpressing the human Edg-1 receptor. Briefly, the cryopreserved cells were taken in culture and grown until confluency in T175 cell culture flasks (Becton Dickinson, cat. no. 35 5001). Cell culture was stopped by washing with calcium-free phosphate-buffered saline (PBS; Gibco, cat. no. 14190), and cells were harvested with a rubber-policeman in 4° C. cold and calcium-free PBS supplemented with a protease inhibitor cocktail (complete protease inhibitor; Roche, cat. no. 1697498; 1 tablet per 50 ml) and subsequently centrifuged at 4° C. for 15 min at 1100×g (Heraeus Minifuge T). For cell lysis, the pellet was resuspended in a 4° C. cold hypotonic buffer consisting of 5 mM HEPES (Sigma-Aldrich, cat. no. H-0981), 1 mM EDTA (disodium salt; Merck, cat. no. 8418) supplemented with protease inhibitor cocktail (as above) in which cells were stored for another 15 min on ice. After lysis, cells were centrifuged at 4° C. for 10 min at 400×g (Heraeus Minifuge T). The pellet was disrupted in a Dounce homogenizer, diluted with the supernatant of the previous centrifugation and subsequently centrifuged at 4° C. for 10 min at 500×g (Heraeus Minifuge T) in order to separate nuclei and still intact cells from the membranes mainly present in the supernatant. The supernatant was then diluted in hypotonic buffer and centrifuged (Beckmann, Avanti J251) at approximately 18600×g for 2 h at 4° C. After centrifugation, the membrane pellet was resuspended in a storing buffer consisting of 20 mM HEPES; 150 mM NaCl (Merck, cat. no. 6400), 1 mM EDTA (as above) supplemented with protease inhibitor cocktail (as above). The membrane preparation was aliquoted and stored at −80° C. Protein concentration of the membrane preparation was determined in a sample by means of a commercial protein assay (Bio-Rad, DC Protein Assay, cat. nos. 500-0113, 500-0114, 500-0115).
The Edg-1 membrane preparation obtained in (b) was employed in a commercially available scintillation proximity assay (SPA) kit for G-protein coupled receptor binding from Amersham Biosciences/GE Healthcare (code RPNQ0210), in which ligand-induced binding of ^35S-radiolabeled GTP-γ-S to the receptor-containing membrane, which is bound to scintillation beads, stimulates the emission of light and allows the quantification of the in vitro activity of the Edg-1 agonistic compound. The assay was performed on a 96-well plate substantially according to the manufacturer's instructions. Before starting the experiments, scintillation beads were suspended in a reconstitution buffer consisting of Tris-HCl (pH 7.4) supplemented with 0.1% (w/v) sodium azide and subsequently diluted on ice with assay buffer (consisting of 20 mM HEPES, 100 mM NaCl, 1 mM EDTA (as above), 1 mM dithiothreitol (DTT), adjusted to pH 7.4) to a final bead concentration of 30 mg/ml.
Wells were charged with 10 μl of the specified assay buffer, 10 μl of a 100 μM guanosine diphosphate (GDP) solution, and 10 μl of a solution of the test compound in assay buffer/dimethyl sulfoxide resulting in a final concentration of the test compound of 10 μM. For the high controls, 10 μl of a solution of sphingosine-1-phosphate (S1P; Sigma, cat. no. S-9666), resulting in a final S1P concentration of 10 μM, and for the low controls 10 μl of assay buffer, was added into the respective wells instead of the solution of the test compound. All wells contained equivalent amounts of dimethyl sulfoxide. […]
CCCc1nc(Oc2cc(F)ccc2F)nc2oc(-c3cc(C)c(OCC(=O)O)c(C)c3)nc12 [Example 1, {4-[5-(2,5-Difluorophenoxy)-7-propyloxazolo[5,4-d]pyrimidin-2-yl]-2,6-dimethylphenoxy}acetic acid] was tested, and the activation at 10 µM was 94%.
With CCCc1nc(OCCC(F)(F)F)nc2oc(-c3cc(C)c(OCC(=O)O)c(C)c3)nc12 [Example 2, {2,6-Dimethyl-4-[7-propyl-5-(3,3,3-trifluoropropoxy)oxazolo[5,4-d]pyrimidin-2-yl]phenoxy}acetic acid] the activation at 10 µM was 97%.
Compound Cc1cc(-c2nc3c(CC(C)C)nc(Oc4ccccc4F)nc3o2)cc(C)c1OCC(=O)O [Example 3, {4-[5-(2-Fluorophenoxy)-7-isobutyloxazolo[5,4-d]pyrimidin-2-yl]-2,6-dimethylphenoxy}acetic acid] has an activation at 10 µM of 92%.
In the case of Cc1cc(-c2nc3c(CC(C)C)nc(OCCC(F)(F)F)nc3o2)cc(C)c1OCC(=O)O [Example 4, {4-[7-Isobutyl-5-(3,3,3-trifluoropropoxy)oxazolo[5,4-d]pyrimidin-2-yl]-2,6-dimethylphenoxy}acetic acid], the activation at 10 µM is reported as 106%.
With Cc1cc(-c2nc3c(CC(C)C)nc(Oc4cccc(Cl)c4)nc3o2)cc(C)c1OCC(=O)O [Example 5, {4-[5-(3-Chlorophenoxy)-7-isobutyloxazolo[5,4-d]pyrimidin-2-yl]-2,6-dimethylphenoxy}acetic acid] the activation at 10 µM was 86%.
CCCc1nc(Oc2cccc(Cl)c2)nc2oc(-c3cc(C)c(OCC(=O)O)c(C)c3)nc12 [Example 6, {4-[5-(3-Chlorophenoxy)-7-propyloxazolo[5,4-d]pyrimidin-2-yl]-2,6-dimethylphenoxy}acetic acid] gave an activation at 10 µM of 118%.
In the case of Cc1cc(-c2nc3c(CC(C)C)nc(Cc4ccc(Cl)cc4)nc3o2)cc(C)c1OCC(=O)O [Example 7, {4-[5-(4-Chlorobenzyl)-7-isobutyloxazolo[5,4-d]pyrimidin-2-yl]-2,6-dimethylphenoxy}acetic acid], the activation at 10 µM is reported as 38%.
In the case of Cc1cc(-c2nc3c(CC(C)C)nc(Cc4ccccc4)nc3o2)cc(C)c1OCC(=O)O [Example 8, [4-(5-Benzyl-7-isobutyloxazolo[5,4-d]pyrimidin-2-yl)-2,6-dimethylphenoxy]acetic acid], the activation at 10 µM is reported as 98%.
Cc1cc(-c2nc3c(C(C)C)nc(Cc4ccc(Cl)cc4)nc3o2)cc(C)c1OCC(=O)O [Example 9, {4-[5-(4-Chlorobenzyl)-7-isopropyloxazolo[5,4-d]pyrimidin-2-yl]-2,6-dimethylphenoxy}acetic acid] showed an activation at 10 µM of 90%.
